We go through 26 compounds from patent US11242354B2, “4-sulfur substituted podophyllotoxin derivative and preparation method therefor and use thereof” (priority 2017, dated 2022).

Where two headings read alike, the source gives them in different places.

Series [1] relates to HepG2. Description: MTT test for inhibition of tumor cells, HepG2. In kind it is cell-based. The settings on record: 48 h. A general note: Tetrazolium assays rely on reduction of a dye to a coloured formazan, in cell work by metabolically active cells.
Description: (§1) HepG2, HeLa cell lines and human normal liver cells HL-7702 in a logarithmic growth period were centrifuged at 1000 rpm for 5 min, and the supernatant was discarded, the cells were suspended with a suitable amount of culture medium to adjust the cell concentration to 3.5×10^4/well, the cells were seeded in 96-well plates, and the following experimental groups were set:
(§2) 100 μl of DMSO was added to each well, followed by shaking on a shaker for 30 min at 37° C., the absorbance (OD) was measured at 492 nm, and the MTT ratio was calculated as the OD value of drug group/OD value of negative control group.
Series [2] concerns HeLa. Description: MTT test for inhibition of tumor cells, HeLa. In kind it is cell-based. The settings on record: 48 h.
Description: as §1, §2
For series [3], the system named is human normal hepatocytes HL-7702. Description: MTT test on human normal hepatocytes HL-7702. The settings on record: read-out: IC50 HL-7702.
Description: as §1, §2
Series [4] shares this test system.
Description: as §1, §2
Series [5] relates to human lung cancer cell A549. Description: Activity on tumor cell A549. In kind it is cell-based. The note with it: vs etoposide.
Series [6] has as its system breast cancer cell MCF7. The series is described as follows: Activity on tumor cell MCF7. In kind it is cell-based, human. The settings on record: for antitumor activity on MCF7 compared with etoposide: vs etoposide.
The subject of series [7] is human embryonic lung cells MRC-5. The series is described as follows: Toxicity on normal cell line MRC-5. In kind it is cell-based. The settings on record: MRC5.
For series [8], the system named is human cervical immortalized cells H8. The series is described as follows: Toxicity on normal cell line H8. In kind it is cell-based.
Series [9] relates to human mammary epithelial cells HMEC. Description: Toxicity on normal cell line HMEC. In kind it is cell-based.
The mark [10] stands for this setting: human normal hepatocytes HL-7702, MTT, 48 h.

`COc1cc([C@@H]2c3cc4c(cc3[C@@H](Sc3nc(-c5ccncc5)cs3)[C@H]3COC(=O)[C@H]23)OCO4)cc(OC)c1OC` [Compound 27, 4β-S-(4-(4-pyridyl)thiazol-2)-podophyllotoxin]: the IC50 (as a rule, the concentration that inhibits the measured activity by half) in [1] is 0.89 ± 0.19 µM; in series [2], 1.95 ± 0.36 µM; in [3] (setting [10]), 71.4 ± 2.71 µM.

As to `COc1cc(C2c3cc4c(cc3C(Sc3cc(C(F)(F)F)ccn3)C3COC(=O)C23)OCO4)cc(OC)c1OC` (stereo not drawn) [Compound 1, 4-β-S-(4-trifluoromethylpyridin-2)-podophyllotoxin], the results for the IC50 in series [1], in series [2] and in series [3] (setting [10]) were 2.04 ± 0.3 µM, 1.86 ± 0.2 µM and 57 ± 1.1 µM, respectively.

Regarding “4β-S-(3-phenyl-1,3,4-thiadiazol-2(3H)thione potassium salt-5)-podophyllotoxin [Compound 25]”, the figures for the IC50 in series [1] and in [2] were 2.2 ± 0.28 µM and 31.9 ± 0.42 µM, respectively.

Regarding `COc1cc([C@@H]2c3cc4c(cc3[C@H](O)[C@H]3COC(=O)[C@H]23)OCO4)cc(OC)c1OC` [Podophyllotoxin, podophyllotoxin], the IC50 was determined as 55.53 ± 0.24 µM in series [1] (Homo sapiens); 75.81 ± 0.73 µM in [2] (Homo sapiens); 67.18 ± 0.24 µM in [3] (Homo sapiens, L02, 48 h).

Consider “4β-S-(5-phenylbenzoxazol-2)-4demethylepipodophyllotoxin [Compound 12]”, for which the IC50 in [1] was 10.2 ± 0.46 µM; in series [2], above 100 µM; in series [3] (setting [10]), 56.8 ± 1.32 µM.

Take `COc1cc(C2c3cc4c(cc3C(Sc3nc5cc(OC(F)F)ccc5[nH]3)C3COC(=O)C23)OCO4)cc(OC)c1OC` (stereo not drawn) [Compound 17, 4β-S-(5-difluoromethoxybenzimidazol-2)-podophyllotoxin]: the IC50 in [1] is 0.92 ± 0.05 µM; in [2], 1.15 ± 0.16 µM; in [3] (setting [10]), 8.15 ± 0.87 µM.

With `COc1cc([C@@H]2c3cc4c(cc3[C@@H](Sc3nc5cc(F)ccc5s3)[C@H]3COC(=O)[C@H]23)OCO4)cc(OC)c1O` [Compound 8, 4β-S-(5-fluorobenzothiazol-2)-4demethylepipodophyllotoxin], in series [4], the “toxicity on HL-7702 cell line compared with control compounds” value is given as “significantly lower”. In series [5], the “antitumor activity on A549 compared with etoposide” value is “significantly improved”. In addition, in [6], the “antitumor activity on MCF7 compared with etoposide” value is recorded as “significantly improved”.

Regarding “4β-S-(6-chlorobenzoxazol-2)-podophyllotoxin [Compound 15]”, the IC50 stood at 5.23 ± 0.35 µM in series [1], 7.23 ± 0.44 µM in series [2] and 43.3 ± 3.5 µM in series [3] (setting [10]).

For the compound `COc1cc(C2c3cc4c(cc3C(Sc3nc5cc(OC(F)F)ccc5[nH]3)C3COC(=O)C23)OCO4)cc(OC)c1O` (stereo not drawn) [Compound 18, 4β-S-(5-difluoromethoxybenzimidazol-2)-4demethylepipodophyllotoxin], the figures for the IC50 in series [1], in series [2] and in series [3] (setting [10]) were 2.09 ± 0.17 µM, 7.6 ± 0.51 µM and 11.3 ± 1.87 µM, respectively.

As to `COc1cc(C2c3cc4c(cc3C(Sc3ccc5ccccc5c3)C3COC(=O)C23)OCO4)cc(OC)c1OC` (stereo not drawn) [Compound 19, 4β-S-(naphthalen-2)-podophyllotoxin], the results for the half-inhibitory concentration (IC50) in series [1], in series [2] and in series [3] (setting [10]) were 3.06 ± 0.11 µM, 3.91 ± 0.42 µM and 90.9 ± 3.49 µM, respectively.

For `COc1cc(C2c3cc4c(cc3C(Sc3nc5cc(C)ccc5o3)C3COC(=O)C23)OCO4)cc(OC)c1OC` (stereo not drawn) [Compound 13, 4β-S-(5-methylbenzoxazol-2)-podophyllotoxin], the IC50 was 7.31 ± 0.4 µM in series [1], 9.31 ± 0.6 µM in series [2] and 60.1 ± 1.6 µM in series [3] (setting [10]).

As to `COc1cc(C2c3cc4c(cc3C(Sc3nnnn3-c3ccccc3)C3COC(=O)C23)OCO4)cc(OC)c1OC` (stereo not drawn) [Compound 23, 4β-S-(1-phenyltetrazol-5)-podophyllotoxin], the values for the IC50 in series [1], in [2] and in [3] (setting [10]) were 6.17 ± 0.27 µM, 15.8 ± 0.56 µM and 87.1 ± 4.2 µM, respectively.

With `COc1cc(C2c3cc4c(cc3C(Sc3nc5cc(F)ccc5s3)C3COC(=O)C23)OCO4)cc(OC)c1OC` (stereo not drawn) [Compound 7, 4β-S-(5-fluorobenzothiazol-2)-podophyllotoxin], the figures for the IC50 in series [1], in series [2] and in [3] (setting [10]) were 1 ± 0.06 µM, 1.47 ± 0.32 µM and 97 ± 2.1 µM, respectively.

With `COc1cc([C@@H]2c3cc4c(cc3[C@@H](Sc3nc5cc(F)ccc5o3)[C@H]3COC(=O)[C@H]23)OCO4)cc(OC)c1O` [Compound 10, 4β-S -(5-fluorobenzoxazol-2)-4demethylepipodophyllotoxin], in series [4], the “toxicity on HL-7702 cell line compared with control compounds” value is “significantly lower”. In [5], the “antitumor activity on A549 compared with etoposide” value is given as “significantly improved”. Also, in [6], the “antitumor activity on MCF7 compared with etoposide” value was “significantly improved”.

With `COc1cc([C@@H]2c3cc4c(cc3[C@@H](Sc3nc(-c5ccncc5)cs3)[C@H]3COC(=O)[C@H]23)OCO4)cc(OC)c1O` [Compound 28, 4β-S-(4-(4-pyridyl)thiazol-2)-4demethylepipodophyllotoxin], the half-inhibitory concentration (IC50) worked out at 29.2 ± 1.34 µM in series [1], 24.1 ± 1.29 µM in [2] and 60.1 ± 2.88 µM in [3] (setting [10]).

For “4β-S-(6-chlorobenzoxazol-2)-4demethylepipodophyllotoxin [Compound 16]”, the IC50 in [1] was 22.3 ± 1.46 µM; in series [2], 32.3 ± 1.87 µM; in series [3] (setting [10]), 68.3 ± 4.5 µM.

With `COc1cc(C2c3cc4c(cc3C(Sc3ccc(F)cc3)C3COC(=O)C23)OCO4)cc(OC)c1OC` (stereo not drawn) [Compound 5, 4β-S-(4-fluorobenzene-1)-podophyllotoxin], the IC50 is 2.28 ± 0.1 µM in series [1], 9.5 ± 0.43 µM in series [2] and 44.5 ± 1 µM in series [3] (setting [10]).

`COc1cc(C2c3cc4c(cc3C(Sc3nccc(C(F)(F)F)n3)C3COC(=O)C23)OCO4)cc(OC)c1O` (stereo not drawn) [Compound 4, 4-β-S-(4-trifluoromethylpyrimidin-2)-4demethylepipodophyllotoxin]: the IC50 in series [1] turned out to be 7.37 ± 0.32 µM; in [2], 39.36 ± 0.35 µM; in series [3] (setting [10]), 54.9 ± 0.98 µM.

As to `COc1cc(C2c3cc4c(cc3C(Sc3nccc(C(F)(F)F)n3)C3COC(=O)C23)OCO4)cc(OC)c1OC` (stereo not drawn) [Compound 3, 4-β-S-(4-trifluoromethylpyrimidin-2)-podophyllotoxin], the figures for the IC50 in [1], in [2] and in series [3] (setting [10]) were 5.05 ± 0.78 µM, 10.1 ± 0.22 µM and 69.8 ± 1.23 µM, respectively.

With `COc1cc(C2c3cc4c(cc3C(Sc3nc5ncccc5[nH]3)C3COC(=O)C23)OCO4)cc(OC)c1OC` (stereo not drawn) [Compound 21, 4β-S-(1H-imidazo [4,5-B]pyridin-2)-podophyllotoxin], the IC50 in series [1] came to 4.23 ± 0.36 µM; in series [2], 64.23 ± 0.45 µM; in [3] (setting [10]), 56.6 ± 2.34 µM.

`COc1cc(C2c3cc4c(cc3C(Sc3nc5cc(F)ccc5o3)C3COC(=O)C23)OCO4)cc(OC)c1OC` (stereo not drawn) [Compound 9, 4β-S-(5-fluorobenzoxazol-2)-podophyllotoxin]: the IC50 is 0.89 ± 0.07 µM in series [1] and above 1000 µM in series [3] (setting [10]).

Turning to “4β-S-(3-phenyl-1,3,4-thiadiazol-2(3H)thione potassium salt-5)-4demethylepipodophyllotoxin [Compound 26]”, the values for the IC50 in series [1] and in [2] were 5.7 ± 0.33 µM and 48.49 ± 0.38 µM, respectively.

Regarding `COc1cc(C2c3cc4c(cc3C(Sc3nc5cc(C)ccc5o3)C3COC(=O)C23)OCO4)cc(OC)c1O` (stereo not drawn) [Compound 14, 4β-S-(5-methylbenzoxazol-2)-4demethylepipodophyllotoxin], the IC50 was 7.94 ± 0.21 µM in series [1], 11.9 ± 0.99 µM in [2] and 78.7 ± 2.5 µM in [3] (setting [10]).

As to “4β-S-(5-phenylbenzoxazol-2)-podophyllotoxin [Compound 11]”, the IC50 in series [1] is 5.25 ± 0.13 µM; in series [2], above 100 µM; in [3] (setting [10]) it was 70.7 ± 1.65 µM.

For `COc1cc([C@@H]2c3cc4c(cc3[C@@H](O[C@@H]3O[C@@H]5CO[C@@H](C)O[C@H]5[C@H](O)[C@H]3O)[C@H]3COC(=O)[C@H]23)OCO4)cc(OC)c1O` [Etoposide, etoposide, reference compound], the IC50 in series [7] was found to be 30.3 ± 1.21 µM; in [8], 80.1 ± 1.35 µM; in [9], 23.2 ± 1.34 µM; in series [1] (Homo sapiens) it was 20.7 ± 1.7 µM; in series [6] (Homo sapiens, tumor cell line MCF7) it was 56.8 ± 1.22 µM; in series [2] (Homo sapiens), 25.4 ± 2.9 µM. For the same compound, in [3] (Homo sapiens, L02, 48 h), the IC50 stood at 28.8 ± 3.4 µM.

Consider `COc1cc(C2c3cc4c(cc3C(Sc3cc(C(F)(F)F)ccn3)C3COC(=O)C23)OCO4)cc(OC)c1O` (stereo not drawn) [Compound 2, 4-β-S-(4-trifluoromethylpyridin-2)-4demethylepipodophyllotoxin], for which the IC50 worked out at 4.5 ± 0.45 µM in [1], 4.58 ± 0.13 µM in [2] and 42.3 ± 1.52 µM in series [3] (setting [10]).
